Results on four compounds are retold here after publication PMC10361207, “Cannabinoid and Opioid Receptor Affinity and Modulation of Cancer-Related Signaling Pathways of Machaeriols and Machaeridiols from Machaerium Pers” (Molecules, 2023).

The subject of data set [1] is NF-κB. Kind of data set: Luciferase reporter assay, NF-κB, HeLa. It is filed as cell-based. The note with it: Homo sapiens; HeLa cells; inducer PMA; dash: not inhibited by more than 40% at 50 µmol/L. The procedure:
(§1) Hela cells (or T98G cells) from ATCC were plated in white opaque 384-well plates at a density of 4300 cells/well in 30 µL of growth medium (DMEM with 10% FBS and 1% Pen/Strep). The next day, the medium was aspirated and replaced with DMEM containing 1% FBS. The cells were transfected with respective plasmids using X-tremeGENE HP DNA transfection reagent (Roche). After 24 h of transfection, the test agents were added to the transfected cells, followed 30 min later by an inducing agent: interleukin 6 (IL-6) for Stat3, TGF-β for Smad, m-wnt3a for Wnt and PMA for AP-1, NF-κB, E2F, Myc, ETS, Notch and Hedgehog. No inducer was added for FoXO and pTK. After 4 h or 6 h of induction, the cells were lysed via the addition of the One-Glo luciferase assay system (Promega; Madison, WI). The light output was detected in a GloMax®-Multi+ Detection System with Instinct® Software (Promega E 8051). This luciferase assay determines if the test agent is able to inhibit the activation of cancer-related signaling pathways. In the case of FoxO, the enhanced luciferase activity via the test agent was assessed.

Data set [2] has as its system Notch. Kind of data set: Luciferase reporter assay, Notch, HeLa. Conditions: Homo sapiens; HeLa cells; inducer PMA; dash: not inhibited by more than 40% at 50 µmol/L. It is filed as cell-based. As for the experimental part:
as §1

Another data set has as its system FoxO. Kind of data set: Luciferase reporter assay, FoxO, HeLa. It is filed as cell-based. Conditions: Homo sapiens; HeLa cells; no inducer; dash: no activity detected; read-out: IC50, FoxO (None). As for the experimental part: as §1
The test system of data set [3] is Smad2/3. Kind of data set: Luciferase reporter assay, Smad2/3, HeLa. The class given is cell-based, human. The note with it: Homo sapiens; HeLa cells; inducer TGF-beta; dash: not inhibited by more than 40% at 50 µmol/L. As for the experimental part: as §1
For data set [4], the system named is ETS. As to the kind of experiment: Luciferase reporter assay, ETS, HeLa. It is filed as cell-based, human. Conditions: Homo sapiens; HeLa cells; inducer PMA; dash: not inhibited by more than 40% at 50 µmol/L. As for the experimental part: as §1
Data set [5] relates to E2F. Kind of data set: Luciferase reporter assay, E2F, HeLa. The class given is cell-based, human. As for the experimental part: as §1
The subject of data set [6] is Myc. As to the kind of experiment: Luciferase reporter assay, Myc, HeLa. The class given is cell-based. The note with it: Homo sapiens; HeLa cells; inducer PMA; dash: not inhibited by more than 40% at 50 µmol/L. As for the experimental part: as §1
Data set [7] relates to Wnt. Kind of data set: Luciferase reporter assay, Wnt, HeLa. The class given is cell-based. Conditions: Homo sapiens; HeLa cells; inducer m-wnt3a; dash: not inhibited by more than 40% at 50 µmol/L. The procedure: as §1
Data set [8] relates to panel of transcription factors (cancer-related signaling pathways). As to the kind of experiment: Luciferase reporter panel, summary over pathways, HeLa. It is filed as cell-based. Conditions: Homo sapiens; HeLa cells; read-out: IC50, span over signaling pathways. The procedure: as §1
Data set [9] relates to Stat3. As to the kind of experiment: Luciferase reporter assay, Stat3, HeLa. It is filed as cell-based, human. The note with it: Homo sapiens; HeLa cells; inducer IL6; dash: not inhibited by more than 40% at 50 µmol/L. The procedure:
as §1

Data set [10] concerns AP-1. As to the kind of experiment: Luciferase reporter assay, AP-1, HeLa. It is filed as cell-based, human. As for the experimental part: as §1
For data set [11], the system named is Hedgehog. As to the kind of experiment: Luciferase reporter assay, Hedgehog, HeLa. The class given is cell-based, human. The note with it: Homo sapiens; HeLa cells; inducer PMA; dash: not inhibited by more than 40% at 50 µmol/L. The procedure:
as §1

Data set [12] in a line: Cytotoxicity, Neutral Red, Vero. It is filed as cell-based. Conditions: monkey, Vero kidney fibroblasts, Na = not active up to 50 µg/mL. As for the experimental part: (§2) In vitro cytotoxic activity was determined against five human cancer cell lines—malignant melanoma (SK-MEL), epidermal carcinoma oral (KB), ductal carcinoma breast (BT-549), ovary carcinoma (SKOV-3) and cervical (HeLa) cancer cells—and two non-cancerous kidney cell lines (LLC-PK1 and Vero). All cell lines were obtained from the American Type Culture Collection (ATCC, Rockville, MD, USA). Each assay was performed in 96-well tissue culture-treated microplates. The cells were seeded at a density of 25,000 cells/well and incubated for 24 h. Samples at different concentrations were added, and the cells were incubated again for 48 h. At the end of the incubation, the cell viability was determined using Neutral Red dye according to a modification of the procedure used by Borenfreund et al.. IC50 values were determined from dose–response curves of the percent growth inhibition against test concentrations. Doxorubicin was used as a positive control, while DMSO was used as the negative (vehicle) control.

Data set [13] can be described thus: Cytotoxicity, Neutral Red, LLC-PK1. It is filed as cell-based. Conditions: pig, LLC-PK1 kidney epithelial cells, Na = not active up to 50 µg/mL. The procedure:
as §2

Data set [14] can be described thus: Cytotoxicity, Neutral Red, SK-MEL. The class given is cell-based. Conditions: human, SK-MEL malignant melanoma cells, Na = not active up to 50 µg/mL. The procedure: as §2
Data set [15] is described as follows: Cytotoxicity, Neutral Red, HeLa. The class given is cell-based. The note with it: human, HeLa cervical cancer cells, Na = not active up to 50 µg/mL. The procedure:
as §2

A short description of data set [16]: Cytotoxicity, Neutral Red, KB. It is filed as cell-based. Conditions: human, KB epidermal carcinoma (oral) cells, Na = not active up to 50 µg/mL. As for the experimental part: as §2
Data set [17] in a line: Cytotoxicity, Neutral Red, SK-OV-3. The class given is cell-based. Conditions: human, SK-OV-3 ovary carcinoma cells, Na = not active up to 50 µg/mL. As for the experimental part:
as §2

A short description of data set [18]: Cytotoxicity, Neutral Red, BT-549. It is filed as cell-based. Conditions: human, BT-549 breast ductal carcinoma cells, Na = not active up to 50 µg/mL. The procedure:
as §2

The subject of data set [19] is NF-κB. Also on record: method as in PMID 36235141. The note with it: T98G glioblastoma multiforme cells; inducer PMA; cited from earlier work.
The test system of data set [20] is ETS. Also on record: method as in PMID 36235141. The note with it: T98G glioblastoma multiforme cells; inducer PMA; cited from earlier work.
In data set [21] the test system is Myc. Also on record: method as in PMID 36235141. Conditions: T98G glioblastoma multiforme cells; inducer PMA; cited from earlier work.
The subject of data set [22] is E2F. The arrangement: method as in PMID 36235141. Conditions: T98G glioblastoma multiforme cells; inducer PMA; cited from earlier work.
Data set [23] relates to Stat3. Also on record: method as in PMID 36235141. The note with it: T98G glioblastoma multiforme cells; inducer IL6; cited from earlier work.
Data set [24] has as its system Smad2/3. The arrangement: method as in PMID 36235141. Conditions: T98G glioblastoma multiforme cells; inducer TGF-beta; cited from earlier work.
Data set [25] deals with Hedgehog. Also on record: method as in PMID 36235141. The note with it: T98G glioblastoma multiforme cells; inducer PMA; cited from earlier work.
In data set [26] the test system is AP-1. Also on record: method as in PMID 36235141. Conditions: T98G glioblastoma multiforme cells; inducer PMA; cited from earlier work.
For data set [27], the system named is Notch. The arrangement: method as in PMID 36235141. The note with it: T98G glioblastoma multiforme cells; inducer PMA; cited from earlier work.
Data set [28] relates to Wnt. The arrangement: method as in PMID 36235141. Conditions: T98G glioblastoma multiforme cells; inducer m-wnt3a; cited from earlier work.
[29] abbreviates: HeLa cells, inducer PMA, dash: not inhibited by more than 40% at 50 µmol/L.

Converted amounts (≈) assume the structure as drawn. Where two headings read alike, the source gives them in different places.

On to `C=C(C)[C@@H]1CCC(C)=C[C@H]1c1c(O)cc(CCCCC)cc1O` [compound 9, cannabidiol, reference compound], for which the IC50 is 3 µM with NF-κB [1]; 4.8 µM in the data set on Notch [2]; more than 50 µM in the data set with FoxO; 4.1 µM in the data set on Smad2/3 [3]; 5.5 µM in the data set with ETS [4]; more than 50 µM with E2F [5] (Homo sapiens, HeLa, read-out: IC50, E2F (PMA)). Also, the IC50 in the data set with Myc [6] is 3.8 µM; in the data set with Wnt [7], 5.7 µM; in data set [8], 3 to 6.1 µM; in the data set on Stat3 [9] it was 5.9 µM; with AP-1 [10] (Homo sapiens, read-out: IC50, Ap-1 (PMA)), more than 50 µM; in the data set with Hedgehog [11], 6.1 µM. Besides, the “IC50, E2F (PMA)” value in the data set on E2F [5] (setting [29]) is “inactive”. Further, in the data set on AP-1 [10] (setting [29]), the “IC50, Ap-1 (PMA)” value was “inactive”.
In the case of `COc1cccc2c1C(=O)c1c(O)c3c(c(O)c1C2=O)C[C@@](O)(C(=O)CO)C[C@@H]3O[C@H]1C[C@H](N)[C@H](O)[C@H](C)O1` [Doxorubicin, reference compound], the IC50 at 48 h was more than 5 µg/mL in [12]; 1.1 µg/mL (≈ 2.02 µM) in [13]; 2.2 µg/mL (≈ 4.05 µM) in data set [14]; 4.3 µg/mL (≈ 7.91 µM) in [15]; 2.4 µg/mL (≈ 4.42 µM) in data set [16]; 2 µg/mL (≈ 3.68 µM) in [17]. The compound also gave an IC50 at 48 h in data set [18] of 2.4 µg/mL (≈ 4.42 µM).
On to `C=C(C)[C@H]1CCC(C)=C[C@@H]1c1c(O)cc(O)cc1/C=C/c1ccccc1` [compound 12], for which the IC50 was 7.7 µM in the data set with NF-κB [19]; 7.3 µM with ETS [20]; 5.7 µM with Myc [21]; 4.5 µM in the data set on E2F [22]; 4.9 µM with Stat3 [23]; 3.5 µM with Smad2/3 [24]. The IC50 was 7 µM in the data set on Hedgehog [25], 10.2 µM in the data set on AP-1 [26], less than 5 µM in the data set with Notch [27] and 12.1 µM with Wnt [28].
As to `CC(C)=CCC/C(C)=C/Cc1c(O)cc(O)cc1/C=C/c1ccccc1` [compound 13], the IC50 was 4.8 µM in the data set with NF-κB [19]; 4.7 µM in the data set on ETS [20]; 1.9 µM with Myc [21]; 4.4 µM in the data set with E2F [22]; 4.3 µM in the data set with Stat3 [23]; 2.2 µM in the data set with Smad2/3 [24]. For the same compound, the IC50 in the data set with Hedgehog [25] is 8.3 µM; with AP-1 [26] it was 4.4 µM; with Notch [27], 2.1 µM; in the data set on Wnt [28] it was 9.1 µM.
